Test results taken from the NIST ThermoML archive (doi:10.1016/j.fluid.2013.01.011).
Numbers after ± are expanded uncertainties.

Experiments:
[1] = 298.15 K; 101.33 kPa; Liquid; Vibrating tube method
[2] = excess molar enthalpy (molar enthalpy of mixing); xn = mol fraction of the nth substance listed; details: 298.15 K, 101 kPa, Liquid, Calvet calorimetry

For `CCCCCC(C)=O` [2-heptanone], the mass density [1] was 811.162 ± 0.24 kg/m3.
`CC(C)=O` [acetone] gave a mass density [1] of 785.094 ± 0.13 kg/m3.
`CCC(C)=O` [butanone] gave a mass density [1] of 799.969 ± 0.15 kg/m3.
Work on `CCCCNCCCC` [dibutylamine] yielded a mass density [1] of 755.528 ± 0.16 kg/m3.
Molecule `CCCCNCCCC` [dibutylamine] + CC(C)=O has an excess molar enthalpy ([2]; x1 = 0.1101) of 0.106 ± 0.00239 kcal/mol, an excess molar enthalpy ([2]; x1 = 0.2103) of 0.165 ± 0.00359 kcal/mol and an excess molar enthalpy ([2]; x1 = 0.2999) of 0.204 ± 0.0043 kcal/mol. For the same molecule, the excess molar enthalpy ([2]; x1 = 0.398) was 0.22 ± 0.00478 kcal/mol, the excess molar enthalpy ([2]; x1 = 0.4977) was 0.224 ± 0.00478 kcal/mol and the excess molar enthalpy ([2]; x1 = 0.6088) was 0.206 ± 0.00454 kcal/mol. The excess molar enthalpy ([2]; x1 = 0.6999) was 0.181 ± 0.00382 kcal/mol, the excess molar enthalpy ([2]; x1 = 0.79) was 0.143 ± 0.00311 kcal/mol and the excess molar enthalpy ([2]; x1 = 0.8913) was 0.0827 ± 0.00191 kcal/mol.
For `CCCCNCCCC` [dibutylamine] + CCC(C)=O, the excess molar enthalpy ([2]; x1 = 0.1142) was 0.0655 ± 0.00143 kcal/mol, the excess molar enthalpy ([2]; x1 = 0.2078) was 0.102 ± 0.00215 kcal/mol and the excess molar enthalpy ([2]; x1 = 0.2985) was 0.128 ± 0.00287 kcal/mol. For the same molecule, the excess molar enthalpy ([2]; x1 = 0.3978) was 0.144 ± 0.00311 kcal/mol, the excess molar enthalpy ([2]; x1 = 0.4956) was 0.148 ± 0.00311 kcal/mol and the excess molar enthalpy ([2]; x1 = 0.6001) was 0.142 ± 0.00311 kcal/mol. For the same molecule, the excess molar enthalpy ([2]; x1 = 0.693) was 0.126 ± 0.00263 kcal/mol, the excess molar enthalpy ([2]; x1 = 0.7846) was 0.0997 ± 0.00215 kcal/mol and the excess molar enthalpy ([2]; x1 = 0.8802) was 0.0645 ± 0.00143 kcal/mol.
`CCCCNCCCC` [dibutylamine] + CCCC(C)=O showed an excess molar enthalpy ([2]; x1 = 0.1111) of 0.0406 ± 0.000956 kcal/mol, an excess molar enthalpy ([2]; x1 = 0.2106) of 0.0684 ± 0.00143 kcal/mol and an excess molar enthalpy ([2]; x1 = 0.3072) of 0.0908 ± 0.00191 kcal/mol. It also gave an excess molar enthalpy ([2]; x1 = 0.3973) of 0.102 ± 0.00215 kcal/mol, an excess molar enthalpy ([2]; x1 = 0.4942) of 0.108 ± 0.00239 kcal/mol and an excess molar enthalpy ([2]; x1 = 0.6052) of 0.104 ± 0.00239 kcal/mol. It also gave an excess molar enthalpy ([2]; x1 = 0.6999) of 0.0937 ± 0.00215 kcal/mol, an excess molar enthalpy ([2]; x1 = 0.7881) of 0.0762 ± 0.00167 kcal/mol and an excess molar enthalpy ([2]; x1 = 0.8848) of 0.0485 ± 0.0012 kcal/mol.
Molecule `CCCCNCCCC` [dibutylamine] + CCCCCC(C)=O has an excess molar enthalpy ([2]; x1 = 0.1114) of 0.0206 ± 0.000478 kcal/mol, an excess molar enthalpy ([2]; x1 = 0.2189) of 0.0392 ± 0.000956 kcal/mol and an excess molar enthalpy ([2]; x1 = 0.3057) of 0.0519 ± 0.0012 kcal/mol. It also gave an excess molar enthalpy ([2]; x1 = 0.4038) of 0.0607 ± 0.00143 kcal/mol, an excess molar enthalpy ([2]; x1 = 0.5087) of 0.0664 ± 0.00143 kcal/mol and an excess molar enthalpy ([2]; x1 = 0.5962) of 0.0664 ± 0.00143 kcal/mol. The excess molar enthalpy ([2]; x1 = 0.7053) was 0.0612 ± 0.00143 kcal/mol, the excess molar enthalpy ([2]; x1 = 0.8017) was 0.0497 ± 0.0012 kcal/mol and the excess molar enthalpy ([2]; x1 = 0.8891) was 0.033 ± 0.000717 kcal/mol.
`CCCNCCC` [dipropylamine] showed a mass density [1] of 733.723 ± 0.25 kg/m3.
With `CCCNCCC` [dipropylamine] + CC(C)=O the excess molar enthalpy ([2]; x1 = 0.1063) was 0.0652 ± 0.00143 kcal/mol, the excess molar enthalpy ([2]; x1 = 0.2076) was 0.113 ± 0.00239 kcal/mol and the excess molar enthalpy ([2]; x1 = 0.3036) was 0.14 ± 0.00311 kcal/mol. It also gave an excess molar enthalpy ([2]; x1 = 0.3982) of 0.151 ± 0.00335 kcal/mol, an excess molar enthalpy ([2]; x1 = 0.4932) of 0.153 ± 0.00335 kcal/mol and an excess molar enthalpy ([2]; x1 = 0.5821) of 0.147 ± 0.00311 kcal/mol. For the same molecule, the excess molar enthalpy ([2]; x1 = 0.6773) was 0.129 ± 0.00287 kcal/mol, the excess molar enthalpy ([2]; x1 = 0.7652) was 0.104 ± 0.00215 kcal/mol and the excess molar enthalpy ([2]; x1 = 0.8488) was 0.0707 ± 0.00167 kcal/mol.
For `CCCNCCC` [dipropylamine] + CCC(C)=O, the excess molar enthalpy ([2]; x1 = 0.1042) was 0.037 ± 0.000956 kcal/mol, the excess molar enthalpy ([2]; x1 = 0.1978) was 0.0605 ± 0.00143 kcal/mol and the excess molar enthalpy ([2]; x1 = 0.3016) was 0.0798 ± 0.00167 kcal/mol. The excess molar enthalpy ([2]; x1 = 0.3852) was 0.0884 ± 0.00191 kcal/mol, the excess molar enthalpy ([2]; x1 = 0.495) was 0.0949 ± 0.00215 kcal/mol and the excess molar enthalpy ([2]; x1 = 0.5459) was 0.0946 ± 0.00215 kcal/mol. It also gave an excess molar enthalpy ([2]; x1 = 0.5908) of 0.0937 ± 0.00215 kcal/mol, an excess molar enthalpy ([2]; x1 = 0.6833) of 0.0851 ± 0.00191 kcal/mol and an excess molar enthalpy ([2]; x1 = 0.7647) of 0.0715 ± 0.00167 kcal/mol. For the same molecule, the excess molar enthalpy ([2]; x1 = 0.8559) was 0.0488 ± 0.0012 kcal/mol.
Molecule `CCCNCCC` [dipropylamine] + CCCC(C)=O has an excess molar enthalpy ([2]; x1 = 0.1056) of 0.0208 ± 0.000478 kcal/mol, an excess molar enthalpy ([2]; x1 = 0.1981) of 0.0368 ± 0.000956 kcal/mol and an excess molar enthalpy ([2]; x1 = 0.3098) of 0.0519 ± 0.0012 kcal/mol. For the same molecule, the excess molar enthalpy ([2]; x1 = 0.3988) was 0.0621 ± 0.00143 kcal/mol, the excess molar enthalpy ([2]; x1 = 0.5023) was 0.0672 ± 0.00143 kcal/mol and the excess molar enthalpy ([2]; x1 = 0.5922) was 0.0679 ± 0.00143 kcal/mol. The excess molar enthalpy ([2]; x1 = 0.6821) was 0.0638 ± 0.00143 kcal/mol, the excess molar enthalpy ([2]; x1 = 0.781) was 0.0545 ± 0.0012 kcal/mol and the excess molar enthalpy ([2]; x1 = 0.8693) was 0.0382 ± 0.000956 kcal/mol.
`CCCNCCC` [dipropylamine] + CCCCCC(C)=O showed an excess molar enthalpy ([2]; x1 = 0.1145) of 0.0112 ± 0.000478 kcal/mol, an excess molar enthalpy ([2]; x1 = 0.212) of 0.021 ± 0.000478 kcal/mol and an excess molar enthalpy ([2]; x1 = 0.3072) of 0.0282 ± 0.000717 kcal/mol. For the same molecule, the excess molar enthalpy ([2]; x1 = 0.4034) was 0.0342 ± 0.000717 kcal/mol, the excess molar enthalpy ([2]; x1 = 0.4993) was 0.0387 ± 0.000956 kcal/mol and the excess molar enthalpy ([2]; x1 = 0.6017) was 0.0406 ± 0.000956 kcal/mol. It also gave an excess molar enthalpy ([2]; x1 = 0.6872) of 0.038 ± 0.000956 kcal/mol, an excess molar enthalpy ([2]; x1 = 0.7868) of 0.0327 ± 0.000717 kcal/mol and an excess molar enthalpy ([2]; x1 = 0.8796) of 0.0229 ± 0.000478 kcal/mol.
In the case of `CCCC(C)=O` [pentan-2-one], the mass density [1] is reported as 801.522 ± 0.24 kg/m3.
